Measured values as given in patent publication US20260265244A1, “HETEROCYCLIC COMPOUNDS AS STING ANTAGONISTS” (Boehringer Ingelheim International GmbH, priority 2022, published 2026).

How the values were obtained:
[1] = molecular target: T1, human STING WT (R232) (Homo sapiens, UniProt Q86WV6, H232R); test: Human STING HTRF binding assay (competitive, Cisbio 64BDSTGPEG)
T1 construct: purchased Cisbio 64BDSTGPEG
Method: Binders to human STING WT (R232) were identified using a competitive HTRF assay format (Cisbio 64BDSTGPEG), which uses d2-labeled STING ligand, a 6His (SEQ ID NO: 2) tagged human STING protein, and an anti 6His (SEQ ID NO: 2) Cryptate-labeled antibody. Compounds compete with the STING ligand-d2 and thereby prevents FRET from occurring, which can be measured by an EnVision™ reader (PerkinElmer).
Assay method: Compounds were delivered as 10 mM DMSO solution, serially diluted by an Agilent Bravo Workstation and transferred to the 384 well assay plate (Perkin Elmer #6005359) using a Cybiwell dispenser. Typically, 8 concentrations were used with the highest concentration at 10 μM or 1 μM in the final assay volume followed by ~1:5 dilution steps. DMSO concentration was set to 1% in the final assay volume. The 384 well assay plate contained 20 test compounds and DMSO in column 23 and 24. A cGAMP standard dilution row was prepared according to the manufacturer and transferred to each assay plate. After transfer of compound solution or dilution buffer for negative (high) and positive (low) controls, 5 μl of the human STING protein (cyclic binding domain (residues 138-379) of the WT R232 human version, fused to a 6 His tag (SEQ ID NO: 2) at the Nter part; 1:50 dilution in detection buffer) were dispensed to all wells except of the positive control, which received detection buffer only. Plates were the centrifuged for 20 sec at 1000 rpm. After that, 10 μl of Anti-6His-Cryptate antibody/Sting ligand-d2 mix was added to all wells using a Multidrop combi dispenser, followed by another sec/1000 rpm centrifugation step. After an incubation of the plates for 180 min at room temperature, […] at […] (HTRF ratio) was measured using an Envison Reader (PerkinElmer).
Data evaluation and calculation: For data evaluation and calculation, HTRF ratios were calibrated using the cGAMP standard curve. After that, the measurement of the low control was set as 0% control and the measurement of the high control was set as 100% control. The IC50 values were calculated using the standard 4 parameter logistic regression formula. Calculation: [y=(a−d)/(1+(x/c)^b)+d], a=low value, d=high value; x=conc M; c=IC50 M; b=slope;

[2] = system: STING inhibition in human whole blood (IFNα2α production); test: Human whole blood assay (HWBA): cGAMP-stimulated IFNα2α production; assay type: cell-based; settings: Homo sapiens
Method: For the detection of STING inhibition in physiological environment human whole blood was stimulated by the cyclic dinucleotide cGAMP. Pathway activity was monitored by measuring the IFNα2α production.
Assay method: Compounds were delivered as 10 mM DMSO solution and serial diluted and transferred to the 96-well Cell culture Plate (Corning #3595), prefilled with 20 μl OptiMEM (Gibco #11058-021) in each well, using an Echo acoustic dispenser. Typically, 8 concentrations were used with the highest concentration at 10 μM in the final assay volume followed by ~1:5 dilution steps. DMSO concentration was set to 0.1% in the final assay volume. The 96 well assay plate contained 9 test compounds, a reference compound and DMSO in control wells.
Collection of human whole blood from 3 or more healthy donors (male or female, no medication for 7 days, exception contraceptive and thyroxine) as Na-citrate blood (e.g. 3.8% in Monovettes from Sarstedt) is conducted in parallel. Whole blood was kept at room temperature for a maximum of 3 hours after collection until use in the assay.
160 μl of the whole blood samples were transferred to each well of the 96-well assay plates filled with compound/OptiMEM. All assay plates are prepared as duplicates with blood from different donors. Blood plates were kept at room temperature for 60 minutes and continuous shaking with 450 rpm, covered with the lid, but not sealed.
A 10× cGAMP assay solution was diluted from a 2 mM stock solution in 1×HBSS immediately before use at room temperature. 20 μl of the 10× cGAMP/HBSS were added to all compound and all high control wells, whereas HBSS only was added to all low control wells.
After covering assay plates with aera seals and the lid, blood plates were kept at room temperature for 30 minutes and continuous shaking with 450 rpm, followed by an overnight incubation of 22 h at 37° C. in the incubator, without shaking.
For the detection of IFNα-2α in human plasma, the biotinylated capture antibody (Antibody set IFNA2, Meso Scale Diagnostics #B21VH-3, including coating and capture antibody) was diluted 1:17.5 in Diluent 100 (Meso Scale Diagnostics #R50AA-4, according to the manufacturer. U-Plex MSD GOLD 96-well Small Spot Streptavidin SECTOR Plates (Meso Scale Diagnostics #L45SA-5) were coated with 25 μl diluted capture antibody. Coated plates were incubated for 60 min at room temperature under continuous shaking at 700 rpm. MSD IFNα-2α plates were washed three times with 150 μl wash buffer (1×HBSS, 0.05% Tween).
After blocking the plates with 100 μl block solution/well (1×HBSS with 0.2% Tween, 2% BSA) for 60 min at room temperature and continuous shaking at 700 rpm, plates were emptied as dry as possible by dumping just before continuing with the human plasma. Whole Blood assay plates were centrifuged at 1600 rpm for 10 minutes. 25 μl of supernatant was transferred with a pipetting robotics from each whole blood plate to the corresponding IFNα-2α plate. Plates were sealed with microplate seals and kept at room temperature again under continuous shaking at 700 rpm for two hours. Next MSD IFNα-2α plates were washed three times with 150 μl wash buffer (1×HBSS, 0.05% Tween), before adding 25 μl MSD SULFO-TAG IFNα-2α Antibody solution (1:100 diluted in Diluent 3 (Meso Scale Diagnostics #R50AP-2) to each well of the plates. Afterwards plates were sealed with microplate seals and kept at room temperature again under continuous shaking at 700 rpm for two hours. Finally MSD IFNα-2α plates were washed three times with 150 μl wash buffer (1×HBSS, 0.05% Tween). 150 μl 2×Read buffer was added to each well and plates were immediately measured with the MSD Sector S600 Reader using the vendor barcode.
Data evaluation and calculation: For data evaluation and calculation, % control calculation of each well was based on the mean of high (cGAMP stimulated control) and mean of low (unstimulated control) controls by using the following formula: […]

T1 sequence (Q86WV6 138-379 H232R): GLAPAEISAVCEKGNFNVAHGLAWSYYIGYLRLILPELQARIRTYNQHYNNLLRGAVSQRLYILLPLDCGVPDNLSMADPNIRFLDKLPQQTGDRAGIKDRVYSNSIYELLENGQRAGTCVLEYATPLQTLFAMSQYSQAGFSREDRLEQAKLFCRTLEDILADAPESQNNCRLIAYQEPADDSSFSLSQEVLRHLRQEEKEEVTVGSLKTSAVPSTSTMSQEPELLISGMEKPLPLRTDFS

| IC50 [1] | IC50 [2] | Structure (SMILES) |
| --- | --- | --- |
| 16.1 nM | 82 nM | Cc1c(C(C)C)c(-c2cccc3nn(C[C@H](O)c4ccccc4)cc23)nn1-c1cc2cn(C)nc2nc1C(C)O (stereo partly drawn) [Example 19, (1R)-2-(4-{1-[6-(1-hydroxyethyl)-2-methyl-2H-pyrazolo[3,4-b]pyridin-5-yl]-5-methyl-4-(propan-2-yl)-1H-pyrazol-3-yl}-2H-indazol-2-yl)-1-phenylethan-1-ol] |
| 17.4 nM | 84 nM | CSc1nc2nn(C)cc2cc1-n1nc(-c2cccc3nn(C[C@H](O)c4ccccc4)cc23)c(C(C)C)c1C [Example 20, (1R)-2-(4-{5-methyl-1-[2-methyl-6-(methylsulfanyl)-2H-pyrazolo[3,4-b]pyridin-5-yl]-4-(propan-2-yl)-1H-pyrazol-3-yl}-2H-indazol-2-yl)-1-phenylethan-1-ol] |
| 4.9 nM | 85 nM | Cc1nc2nn(CCCN3CCCC3=O)cc2cc1-n1nc(-c2cccc3nn(C[C@H](O)c4ccccc4)cc23)c(C(C)C)c1C [Example 21, 1-{3-[5-(3-{2-[(2R)-2-hydroxy-2-phenylethyl]-2H-indazol-4-yl}-5-methyl-4-(propan-2-yl)-1H-pyrazol-1-yl)-6-methyl-2H-pyrazolo[3,4-b]pyridin-2-yl]propyl}pyrrolidin-2-one] |
| 20 nM | 86 nM | CC(C)c1nc2nn(C)cc2cc1-c1nc(-c2cccc3nn(C[S@@+]([O-])c4ccccc4)cc23)c(C2CC2)n1C [Example 22, 2-{[(S)-benzenesulfinyl]methyl}-4-{5-cyclopropyl-1-methyl-2-[2-methyl-6-(propan-2-yl)-2H-pyrazolo[3,4-b]pyridin-5-yl]-1H-imidazol-4-yl}-2H-indazole] |
| 18.8 nM | 89 nM | Cc1c(C(C)C)c(-c2cccc3nn(C[C@H](O)c4ccccc4)cc23)nn1-c1cc2cn(C)nc2nc1OC(C)C [Example 23, (1R)-2-(4-{5-methyl-1-[2-methyl-6-(propan-2-yloxy)-2H-pyrazolo[3,4-b]pyridin-5-yl]-4-(propan-2-yl)-1H-pyrazol-3-yl}-2H-indazol-2-yl)-1-phenylethan-1-ol] |
| 4.9 nM | 92 nM | Cc1nc2nn(Cc3cnn(C)c3)cc2cc1-n1nc(-c2cccc3nn(C[C@H](O)c4ccccc4)cc23)c(C(C)C)c1C [Example 24, (1R)-2-[4-(5-methyl-1-{6-methyl-2-[(1-methyl-1H-pyrazol-4-yl)methyl]-2H-pyrazolo[3,4-b]pyridin-5-yl}-4-(propan-2-yl)-1H-pyrazol-3-yl)-2H-indazol-2-yl]-1-phenylethan-1-ol] |
| 18.1 nM | 97 nM | Cc1ccc([C@@H](O)Cn2cc3c(-c4nc(-c5cc6cn(C)nc6nc5C(C)C)n(C)c4C4CC4)cccc3n2)cc1 [Example 25, (1R)-2-(4-{5-cyclopropyl-1-methyl-2-[2-methyl-6-(propan-2-yl)-2H-pyrazolo[3,4-b]pyridin-5-yl]-1H-imidazol-4-yl}-2H-indazol-2-yl)-1-(4-methylphenyl)ethan-1-ol] |
| 42.8 nM | 110 nM | Cc1c(C(C)C)c(-c2cccc3nn(C[C@H](O)c4ccccc4)cc23)nn1-c1cc2cn(C)nc2nc1CN1CCOCC1 [Example 26, (1R)-2-[4-(5-methyl-1-{2-methyl-6-[(morpholin-4-yl)methyl]-2H-pyrazolo[3,4-b]pyridin-5-yl}-4-(propan-2-yl)-1H-pyrazol-3-yl)-2H-indazol-2-yl]-1-phenylethan-1-ol] |
| 14.5 nM | 110 nM | Cc1nc2nn(C)cc2cc1-n1nc(-c2cccc3nn(C[C@H](OCF)c4ccccc4)cc23)c(C(C)C)c1C [Example 27, 4-(1-{2,6-dimethyl-2H-pyrazolo[3,4-b]pyridin-5-yl}-5-methyl-4-(propan-2-yl)-1H-pyrazol-3-yl)-2-[(2R)-2-(fluoromethoxy)-2-phenylethyl]-2H-indazole] |
| 8.4 nM | 110 nM | Cn1c(-c2cc3cn(CCCN4CCCC4=O)nc3nc2C2CC2)nc(-c2cccc3nn(C[C@H](O)c4ccccc4)cc23)c1C1CC1 [Example 28, 1-{3-[6-cyclopropyl-5-(5-cyclopropyl-4-{2-[(2R)-2-hydroxy-2-phenylethyl]-2H-indazol-4-yl}-1-methyl-1H-imidazol-2-yl)-2H-pyrazolo[3,4-b]pyridin-2-yl]propyl}pyrrolidin-2-one] |
| 2.8 nM | 110 nM | Cc1c(C2CC2)c(-c2cccc3nn(C[C@H](O)c4ccccc4)cc23)nn1-c1cc2cn(C)nc2nc1C1CC1 [Example 29, (1R)-2-[4-(4-cyclopropyl-1-{6-cyclopropyl-2-methyl-2H-pyrazolo[3,4-b]pyridin-5-yl}-5-methyl-1H-pyrazol-3-yl)-2H-indazol-2-yl]-1-phenylethan-1-ol] |
| 18.2 nM | 110 nM | CCO[C@@H](Cn1cc2c(-c3nn(-c4cc5cn(C)nc5nc4C)c(C)c3C(C)C)cccc2n1)c1ccccc1 [Example 30, 4-(1-{2,6-dimethyl-2H-pyrazolo[3,4-b]pyridin-5-yl}-5-methyl-4-(propan-2-yl)-1H-pyrazol-3-yl)-2-[(2R)-2-ethoxy-2-phenylethyl]-2H-indazole] |
| 8.6 nM | 110 nM | Cc1nc2nn(CCCO)cc2cc1-n1nc(-c2cccc3nn(C[C@H](O)c4ccccc4)cc23)c(C(C)C)c1C [Example 32, 3-[5-(3-{2-[(2R)-2-hydroxy-2-phenylethyl]-2H-indazol-4-yl}-5-methyl-4-(propan-2-yl)-1H-pyrazol-1-yl)-6-methyl-2H-pyrazolo[3,4-b]pyridin-2-yl]propan-1-ol] |
| 6.1 nM | 110 nM | CC(C)n1cc2cc(-c3nc(-c4cccc5nn(C[C@H](O)c6ccccc6)cc45)c(C4CC4)n3C)c(C3CC3)nc2n1 [Example 33, (1R)-2-(4-{5-cyclopropyl-2-[6-cyclopropyl-2-(propan-2-yl)-2H-pyrazolo[3,4-b]pyridin-5-yl]-1-methyl-1H-imidazol-4-yl}-2H-indazol-2-yl)-1-phenylethan-1-ol] |
